Assay in all cases: AK assay 384-well format, Prestwick library screening
In test [1] the test system is A. baumannii strain 98-37-09. The format is cell-based, Acinetobacter baumannii. To be noted: 50 μM final drug concentration; for fold induction at 50 µM: Acinetobacter baumannii, 983709, 3 h.
In test [2] the test system is K. pneumoniae. The format is cell-based, Klebsiella pneumoniae. To be noted: 50 μM final drug concentration; for fold induction at 50 µM: Klebsiella pneumoniae, 3 h.
Test [3] deals with E. faecium. It counts as cell-based, Enterococcus faecium. To be noted: 50 μM final drug concentration; for fold induction at 50 µM: Enterococcus faecium, 3 h.
Test [4] deals with E. coli. The format is cell-based, Escherichia coli. Particulars: for fold induction at 50 µM: Escherichia coli, 3 h.
Test [5] deals with E. cloacae. It counts as cell-based, Enterobacter cloacae. Particulars: 50 μM final drug concentration; for fold induction at 50 µM: Enterobacter cloacae, 3 h.
In test [6] the test system is P. aeruginosa. The format is cell-based, Pseudomonas aeruginosa. To be noted: 50 μM final drug concentration; for fold induction at 50 µM: Pseudomonas aeruginosa, 3 h.
In test [7] the test system is S. aureus strain USA300-0114. It counts as cell-based, Staphylococcus aureus. To be noted: 50 μM final drug concentration; for fold induction at 50 µM: Staphylococcus aureus, USA300, 3 h.
The mark [8] stands for this setting: 384-well format, cutoff for positive-scoring molecules 3-fold increase, read-out: AK-based Prestwick Library Screening Results, A. baumannii (increase in extracellular AK activity).
Where [9] appears, read: 384-well format, cutoff for positive-scoring molecules 3-fold increase, read-out: AK-based Prestwick Library Screening Results, K. pneumoniae (increase in extracellular AK activity).
The mark [10] stands for this setting: 384-well format, cutoff for positive-scoring molecules 3-fold increase, read-out: AK-based Prestwick Library Screening Results, E. faecium (increase in extracellular AK activity).
[11] abbreviates: 50 μM final drug concentration, 384-well format, cutoff for positive-scoring molecules 3-fold increase, read-out: AK-based Prestwick Library Screening Results, E. coli (increase in extracellular AK activity).
Setting [12] is: 384-well format, cutoff for positive-scoring molecules 3-fold increase, read-out: AK-based Prestwick Library Screening Results, E. cloacae (increase in extracellular AK activity).
Setting [13] is: 384-well format, cutoff for positive-scoring molecules 3-fold increase, read-out: AK-based Prestwick Library Screening Results, P. aeruginosa (increase in extracellular AK activity).
Where [14] appears, read: 384-well format, cutoff for positive-scoring molecules 3-fold increase, read-out: AK-based Prestwick Library Screening Results, S. aureus (increase in extracellular AK activity).
The mark [15] stands for this setting: planktonic, cutoff for positive-scoring molecules 3-fold increase.

Structures can show the parent of a compound that is named as a salt. Where two headings read alike, the source gives them in different places.

Take `N[C@@H](Cc1ccc(O)c(O)c1)C(=O)O` [Levodopa]: the fold induction at 50 µM in test [1] (setting [8]) was 0.7; in test [2] (setting [9]) it was 0.6; in test [3] (setting [10]) it was 0.8; in test [4] (setting [11]), 0.6; in test [5] (setting [12]), 0.8; in test [6] (setting [13]) it was 0.5. In addition, in test [7] (setting [14]), the fold induction at 50 µM was 0.5.

With `CC(=O)N(CC(C)C(=O)O)c1c(I)cc(I)c(N)c1I` (centres unmarked) [locetamic acid], in test [1] (setting [15]), the “AK-based Prestwick Library Screening Results, A. baumannii (fold increase in extracellular AK activity)” value came out at 0.8. The “AK-based Prestwick Library Screening Results, K. pneumoniae (fold increase in extracellular AK activity)” value in test [2] (setting [15]) is reported as 0.8. Moreover, the “AK-based Prestwick Library Screening Results, E. faecium (fold increase in extracellular AK activity)” value in test [3] (setting [15]) came to 0.9. For the same compound, the “AK-based Prestwick Library Screening Results, E. coli (fold increase in extracellular AK activity)” value in test [4] (50 μM final drug concentration, planktonic, […]) was determined as 0.9. In test [5] (setting [15]), the “AK-based Prestwick Library Screening Results, E. cloacae (fold increase in extracellular AK activity)” value came out at 1.4. In addition, the “AK-based Prestwick Library Screening Results, P. aeruginosa (fold increase in extracellular AK activity)” value in test [6] (setting [15]) is 0.9. Besides, in test [7] (setting [15]), the “AK-based Prestwick Library Screening Results, S. aureus (fold increase in extracellular AK activity)” value is 0.8.

On to `CN(C)CCCN1c2ccccc2Sc2ccc(C(F)(F)F)cc21` [Triflupromazine hydrochloride], for which the fold induction at 50 µM in test [1] (planktonic A. baumannii, 384-well, […], read-out: AK-based Prestwick Library Screening Results: A. baumannii (increase in extracellular AK activity)) stood at 1.5; in test [2] (planktonic K. pneumoniae, 384-well, […], read-out: AK-based Prestwick Library Screening Results: K. pneumoniae (increase in extracellular AK activity)), 1; in test [3] (planktonic E. faecium, 384-well, […], read-out: AK-based Prestwick Library Screening Results: E. faecium (increase in extracellular AK activity)) it was 0.9; in test [4] (read-out: AK-based Prestwick Library Screening Results: E. coli (increase in extracellular AK activity)), 1.1; in test [5] (planktonic E. cloacae, 384-well, […], read-out: AK-based Prestwick Library Screening Results: E. cloacae (increase in extracellular AK activity)) it was 1.6; in test [6] (planktonic P. aeruginosa, 384-well, […], read-out: AK-based Prestwick Library Screening Results: P. aeruginosa (increase in extracellular AK activity)), 1. Besides, the fold induction at 50 µM in test [7] (planktonic S. aureus, 384-well, […], read-out: AK-based Prestwick Library Screening Results: S. aureus (increase in extracellular AK activity)) is 1.1.

Take `O=C(CCCN1CCC(n2c(O)nc3ccccc32)CC1)c1ccc(F)cc1` [Benperidol]: the fold induction at 50 µM in test [1] (planktonic A. baumannii, cutoff for positive-scoring molecules 3-fold increase, read-out: AK-based Prestwick Library Screening Results, A. baumannii (increase in extracellular AK activity)) came to 0.5; in test [2] (planktonic K. pneumoniae, cutoff for positive-scoring molecules 3-fold increase, read-out: AK-based Prestwick Library Screening Results, K. pneumoniae (increase in extracellular AK activity)), 0.5; in test [3] (planktonic E. faecium, cutoff for positive-scoring molecules 3-fold increase, read-out: AK-based Prestwick Library Screening Results, E. faecium (increase in extracellular AK activity)) it was 1; in test [4] (planktonic E. coli, 50 μM final drug concentration, cutoff for positive-scoring molecules 3-fold increase, read-out: AK-based Prestwick Library Screening Results, E. coli (increase in extracellular AK activity)), 0.6; in test [5] (planktonic E. cloacae, cutoff for positive-scoring molecules 3-fold increase, read-out: AK-based Prestwick Library Screening Results, E. cloacae (increase in extracellular AK activity)) it was 0.6; in test [6] (planktonic P. aeruginosa, cutoff for positive-scoring molecules 3-fold increase, read-out: AK-based Prestwick Library Screening Results, P. aeruginosa (increase in extracellular AK activity)), 0.6. For the same compound, the fold induction at 50 µM in test [7] (planktonic S. aureus, cutoff for positive-scoring molecules 3-fold increase, read-out: AK-based Prestwick Library Screening Results, S. aureus (increase in extracellular AK activity)) was 0.5.

In the case of `CC[C@H](c1ccc(O)cc1)[C@@H](CC)c1ccc(O)cc1` [Hexestrol], the fold induction at 50 µM came to 3 in test [1] (cutoff for positive-scoring molecules 3-fold increase, read-out: AK-based Prestwick Library Screening Results, A. baumannii (fold increase in extracellular AK activity)); 0.7 in test [2] (cutoff for positive-scoring molecules 3-fold increase, read-out: AK-based Prestwick Library Screening Results, K. pneumoniae (fold increase in extracellular AK activity)); 1.2 in test [3] (cutoff for positive-scoring molecules 3-fold increase, read-out: AK-based Prestwick Library Screening Results, E. faecium (fold increase in extracellular AK activity)); 1.4 in test [4] (50 μM final drug concentration, cutoff for positive-scoring molecules 3-fold increase, read-out: AK-based Prestwick Library Screening Results, E. coli (fold increase in extracellular AK activity)); 1.6 in test [5] (cutoff for positive-scoring molecules 3-fold increase, read-out: AK-based Prestwick Library Screening Results, E. cloacae (fold increase in extracellular AK activity)); 1.1 in test [6] (cutoff for positive-scoring molecules 3-fold increase, read-out: AK-based Prestwick Library Screening Results, P. aeruginosa (fold increase in extracellular AK activity)). In addition, the fold induction at 50 µM in test [7] (cutoff for positive-scoring molecules 3-fold increase, read-out: AK-based Prestwick Library Screening Results, S. aureus (fold increase in extracellular AK activity)) stood at 0.7.

Take `CC(=O)SCC(Cc1ccccc1)C(=O)NCC(=O)OCc1ccccc1` (centres unmarked) [Racecadotril]: the fold induction at 50 µM amounted to 1.3 in test [1] (planktonic, cutoff for positive 3-fold increase, read-out: AK-based Prestwick Library Screening Results, A. baumannii (fold increase in extracellular AK activity)); 1.1 in test [2] (planktonic, cutoff for positive 3-fold increase, read-out: AK-based Prestwick Library Screening Results, K. pneumoniae (fold increase in extracellular AK activity)); 1 in test [3] (planktonic, cutoff for positive 3-fold increase, read-out: AK-based Prestwick Library Screening Results, E. faecium (fold increase in extracellular AK activity)); 1.2 in test [4] (50 μM final drug concentration, planktonic, cutoff for positive 3-fold increase, read-out: AK-based Prestwick Library Screening Results, E. coli (fold increase in extracellular AK activity)); 1.5 in test [5] (planktonic, cutoff for positive 3-fold increase, read-out: AK-based Prestwick Library Screening Results, E. cloacae (fold increase in extracellular AK activity)); 1.2 in test [6] (planktonic, cutoff for positive 3-fold increase, read-out: AK-based Prestwick Library Screening Results, P. aeruginosa (fold increase in extracellular AK activity)). Further, the fold induction at 50 µM in test [7] (planktonic, cutoff for positive 3-fold increase, read-out: AK-based Prestwick Library Screening Results, S. aureus (fold increase in extracellular AK activity)) stood at 1.9.

On to `Cc1cccc(C)c1OCC(C)N` (centres unmarked) [Mexiletine hydrochloride], for which the fold induction at 50 µM is 0.5 in test [1] (setting [8]); 0.6 in test [2] (setting [9]); 0.9 in test [3] (setting [10]); 0.6 in test [4] (setting [11]); 0.7 in test [5] (setting [12]); 0.7 in test [6] (setting [13]). The fold induction at 50 µM in test [7] (setting [14]) was 0.7.

Take Dihydroergotamine tartrate: the “AK-based Prestwick Library Screening Results: A. baumannii (increase in extracellular AK activity)” value in test [1] (planktonic A. baumannii, 384-well, cutoff for positive-scoring molecules 3-fold increase) was 1.5. Further, the “AK-based Prestwick Library Screening Results: K. pneumoniae (increase in extracellular AK activity)” value in test [2] (planktonic K. pneumoniae, 384-well, cutoff for positive-scoring molecules 3-fold increase) is reported as 0.9. For the same compound, in test [3] (planktonic E. faecium, 384-well, cutoff for positive-scoring molecules 3-fold increase), the “AK-based Prestwick Library Screening Results: E. faecium (increase in extracellular AK activity)” value stood at 1.0. For the same compound, in test [4] (planktonic E. coli, 50 μM final drug concentration, 384-well, […]), the “AK-based Prestwick Library Screening Results: E. coli (increase in extracellular AK activity)” value is 1.3. Further, in test [5] (planktonic E. cloacae, 384-well, cutoff for positive-scoring molecules 3-fold increase), the “AK-based Prestwick Library Screening Results: E. cloacae (increase in extracellular AK activity)” value is 1.3. Moreover, the “AK-based Prestwick Library Screening Results: P. aeruginosa (increase in extracellular AK activity)” value in test [6] (planktonic P. aeruginosa, 384-well, cutoff for positive-scoring molecules 3-fold increase) is 1.2. In test [7] (planktonic S. aureus, 384-well, cutoff for positive-scoring molecules 3-fold increase), the “AK-based Prestwick Library Screening Results: S. aureus (increase in extracellular AK activity)” value stood at 1.0.

The values are drawn from patent publication US10004701B2, “Methods and compositions for treating infection” (UNIVERSITY OF ROCHESTER, priority 2012, dated 2018).
